Test results as given in PubChem BioAssay (NCI).
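48-hour exposure; five concentrations; linearly interpolated endpoints. GI50: concentration for 50% inhibition of growth. TGI is the concentration that stops growth completely.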

What was measured:
Experiment in all cases: NCI-60 cell line screen, 48 h
[1] = system: SK-MEL-2 melanoma
[2] = system: UACC-257 melanoma
[3] = system: HCT-116 colon
[4] = system: RXF 393 renal
[5] = system: NCI-H522 lung
[6] = system: RPMI-8226 leukemia
[7] = system: T-47D breast
[8] = system: UACC-62 melanoma
[9] = system: A498 renal
[10] = system: HOP-62 NSCLC
[11] = system: BT-549 breast
[12] = system: 786-0 renal
[13] = system: SF-295 CNS
[14] = system: M14 melanoma
[15] = system: COLO 205 colon
[16] = system: OVCAR-3 ovarian
[17] = system: NCI/ADR-RES ovarian
[18] = system: SK-MEL-5 melanoma
[19] = system: SF-268 CNS
[20] = system: HCT-15 colon
[21] = system: SK-MEL-28 melanoma
[22] = system: PC-3 prostate
[23] = system: UO-31 renal
[24] = system: K-562 leukemia
[25] = system: HT29 colon
[26] = system: NCI-H226 lung
[27] = system: A549 NSCLC
[28] = system: SW-620 colon
[29] = system: TK-10 renal
[30] = system: HOP-92 NSCLC
[31] = system: HS 578T breast
[32] = system: EKVX NSCLC
[33] = system: SN12C renal
[34] = system: SR leukemia
[35] = system: MALME-3M melanoma
[36] = system: MCF7 breast
[37] = system: MOLT-4 leukemia
[38] = system: SK-OV-3 ovarian
[39] = system: MDA-MB-231 breast
[40] = system: DU-145 prostate
[41] = system: MDA-MB-435
[42] = system: CCRF-CEM leukemia
[43] = system: KM12 colon
[44] = system: IGROV1 ovarian
[45] = system: LOX IMVI melanoma
[46] = system: OVCAR-8 ovarian
[47] = system: SF-539 CNS
[48] = system: CAKI-1 renal
[49] = system: NCI-H460 lung
[50] = system: OVCAR-4 ovarian
[51] = system: HCC-2998 colon
[52] = system: ACHN renal
[53] = system: OVCAR-5 ovarian
[54] = system: U251 CNS
[55] = system: NCI-H23 lung
[56] = system: SNB-75 CNS
[57] = system: HL-60(TB) leukemia
[58] = system: SNB-19 CNS

SMILES: COc1cc2c3c(n(CCCNCCCNCCCn4c5c(c6cc(OC)c(OC)cc6c4=O)C(=O)c4ccccc4-5)c(=O)c2cc1OC)-c1ccccc1C3=O
- GI50 [1]: 40.3 µM
- TGI [1]: > 100 µM
- GI50 [2]: > 100 µM
- TGI [2]: > 100 µM
- GI50 [3]: 1.27 µM
- TGI [3]: 17.6 µM
- GI50 [4]: > 47.8 µM
- TGI [4]: > 92.2 µM
- GI50 [5]: 1.54 µM
- TGI [5]: 38.7 µM
- GI50 [6]: 0.487 µM
- TGI [6]: 6.62 µM
- GI50 [7]: > 24.8 µM
- TGI [7]: > 100 µM
- GI50 [8]: 8.75 µM
- TGI [8]: 38.9 µM
- GI50 [9]: 25.2 µM
- TGI [9]: 59.8 µM
- GI50 [10]: 6.59 µM
- TGI [10]: 47 µM
- GI50 [11]: 58.2 µM
- TGI [11]: > 100 µM
- TGI [12]: > 46.4 µM
- GI50 [13]: 5.03 µM
- TGI [13]: 18.4 µM
- GI50 [14]: 22.6 µM
- TGI [14]: > 58.9 µM
- GI50 [15]: 7.24 µM
- TGI [15]: > 61.9 µM
- GI50 [16]: 12.6 µM
- TGI [16]: 31.5 µM
- GI50 [17]: > 100 µM
- TGI [17]: > 100 µM
- GI50 [18]: 68.2 µM
- TGI [18]: > 100 µM
- GI50 [19]: 6.61 µM
- TGI [19]: > 100 µM
- GI50 [20]: > 84.5 µM
- TGI [20]: > 100 µM
- GI50 [21]: > 52.5 µM
- TGI [21]: > 82.4 µM
- GI50 [22]: 4.04 µM
- TGI [22]: > 60 µM
- GI50 [23]: > 100 µM
- TGI [23]: > 100 µM
- GI50 [24]: 3.39 µM
- TGI [24]: 45.4 µM
- GI50 [25]: 2.15 µM
- TGI [25]: > 100 µM
- GI50 [26]: 7.89 µM
- TGI [26]: > 52.2 µM
- GI50 [27]: 12.7 µM
- TGI [27]: > 100 µM
- GI50 [28]: 7.51 µM
- TGI [28]: > 100 µM
- GI50 [29]: 40.2 µM
- TGI [29]: > 100 µM
- GI50 [30]: 1.74 µM
- TGI [30]: 8.62 µM
- GI50 [31]: > 50.7 µM
- TGI [31]: > 100 µM
- GI50 [32]: > 100 µM
- TGI [32]: > 100 µM
- GI50 [33]: 0.706 µM
- TGI [33]: > 51.6 µM
- GI50 [34]: 0.225 µM
- TGI [34]: 22.2 µM
- GI50 [35]: 25.7 µM
- TGI [35]: > 91.7 µM
- GI50 [36]: 1.51 µM
- TGI [36]: > 53.2 µM
- GI50 [37]: 2.65 µM
- TGI [37]: 9.8 µM
- GI50 [38]: > 100 µM
- TGI [38]: > 100 µM
- GI50 [39]: 2 µM
- TGI [39]: 20.1 µM
- GI50 [40]: > 44.3 µM
- TGI [40]: > 100 µM
- GI50 [41]: 12.9 µM
- TGI [41]: > 59.1 µM
- GI50 [42]: 0.491 µM
- TGI [42]: 12.7 µM
- GI50 [43]: 4.77 µM
- TGI [43]: > 84.9 µM
- GI50 [44]: 1.33 µM
- TGI [44]: > 55.6 µM
- GI50 [45]: 1.31 µM
- TGI [45]: 13.9 µM
- GI50 [46]: 2.87 µM
- TGI [46]: > 100 µM
- GI50 [47]: 9.17 µM
- TGI [47]: 45.4 µM
- GI50 [48]: > 100 µM
- TGI [48]: > 100 µM
- GI50 [49]: 6.23 µM
- TGI [49]: > 100 µM
- GI50 [50]: > 100 µM
- TGI [50]: > 100 µM
- GI50 [51]: 2.13 µM
- TGI [51]: 30.3 µM
- GI50 [52]: 24.2 µM
- TGI [52]: > 100 µM
- GI50 [53]: 20 µM
- TGI [53]: > 100 µM
- GI50 [54]: 2.49 µM
- TGI [54]: 17.4 µM
- GI50 [55]: > 100 µM
- TGI [55]: > 100 µM
- GI50 [56]: 25 µM
- TGI [56]: 62.1 µM
- GI50 [57]: 1.11 µM
- TGI [57]: 12.6 µM
- GI50 [58]: 6.91 µM
- TGI [58]: > 47.8 µM
